From patent US20090220528A1, “Stimulation of Toll-Like Receptors on T Cells” (THE TRUSTEES OF THE UNIVERISTY OF PENNSYLVANIA CNETER FOR …, priority 2005, published 2009) come the findings set out here.

Common to all, as to format: cell-based, mouse
In assay [1] the test system is activated CD4+ T cells. Put plainly: Effect of signaling inhibitors on TLR ligand-mediated survival. The following applies: for effect on poly(I:C)- or CpG DNA-enhanced activated CD4+ T cell survival: dose dependent (FIG. 4A).
Method: TLR ligands used in all experiments were dissolved in PBS except for PGN, which was solubilized in PBS with 0.02% ethanol. SB203580, U0126, NEMO-binding domain peptide (NBD), and NBD-C were all dissolved in DMSO and purchased from Calbiochem (La Jolla, Calif.).
Therefore, the next set of experiments were designed to assess whether MAPK p38 or ERK 1/2 activation is necessary for TLR ligand-mediated survival in activated CD4^+ T cells. The ERK1/2 activation inhibitor U0126 or the MAPK p38 inhibitor SB203580 was added to TLR ligand-treated activated CD4^+ T cells and viability was assessed.
Assay [2] relates to activated CD4+ T cells. As to the kind of experiment: Survival of activated CD4+ T cells treated with TLR ligands (7-AAD/annexin exclusion). The procedure:
All CD4^+ T cell activation was conducted in complete culture medium composed of RPMI 1640 (Life Technologies, Grand Island, N.Y.), 1.5 μM 2-ME (Sigma-Aldrich, St. Louis, Mo.), 50 μg/ml gentamicin (Life Technologies), and 10% FCS (Mediatech, Washington, D.C.) at 37° C. in 5% CO2. Purified CD4^+ T cells from either BALB/c, MyD88^−/−, or MyD88^+/+ wild-type control littermates were activated on 24-well plates (Costar, Cambridge, Mass.) coated with 1.0 μg/ml CD3ε monoclonal antibody (2C11; BD Biosciences) and 1.0 μg/ml CD28 monoclonal antibody (37.51; BD Biosciences) for 16 hours. In experiments with DO11.10 mice, 1 μg/ml of pOVA, a peptide derived from chicken albumin amino acid residues […] was added to 2×10^6/ml erythrocyte-depleted splenocyte and lymph node cell pools for 16 hours. Following pOVA-induced activation, CD4^+ T cell APC complexes were disrupted with 5 mM EDTA/PBS for 10 minutes at 25° C., washed twice in PBS, and purified with magnetic beads using the MACS CD4^+ T cell isolation kit as described elsewhere herein. Purity of activated DO11.10 CD4^+ T cells exceeded 96%. As described elsewhere herein, the remainder of the contaminants by FACS analysis were CD8^+ T cells, with APCs at <0.1% by RT-PCR.
Following activation, purified CD4^+ T cells were washed twice in PBS and replated in culture medium at 10^6/ml. Cultures were left untreated or treated with either TLR ligands and/or inhibitors for indicated times and concentrations. Following incubation, CD4^+ T cells were washed twice in PBS/2% FBS and stained with CD4-allophycocyanin monoclonal antibody and 7-aminoactinomycin D (7-AAD; BD PharMingen) or annexin (BD PharMingen) and survival was assessed by exclusion of either of these two stains. For absolute live cell counts 50,000 CD45.1^+ splenocytes labeled with anti-CD45.1-PE monoclonal antibody (A20; BD PharMingen) were also added to stained CD4^+ T cell sample FACS tubes just before FACS analysis. Live CD4^+ T cell counts were calculated by taking the ratio of the number of CD4^+CD45.1^−7-ADD^− events collected to the number CD45.1^+ events collected and multiplying by 50,000. Proliferation was measured by CFSE dye dilution as previously described (Wells et al., 1997 J. Clin. Invest. 100:3173).
TLR ligands directly promote the survival of several cell types including neutrophils, DC, and B cells (Lundqvist et al., 2002, Cancer Immunol. Immunother. 51:139; Sabroe et al., 2003, J. Immunol. 170:5268; Grillot et al., 1996, J. Exp. Med. 183:381; Grillot et al., 1996, J. Exp. Med. 183:381). Since it was observed that activated CD4^+ T cells also express TLRs and signal in response to TLR ligands, the next set of experiments were designed to assess whether TLR ligands could directly enhance survival of these cells. DO11.10 CD4^+ T cells, that encode a transgenic TCR specific for a peptide derived from chicken OVA (pOVA), were activated with pOVA-pulsed APCs for 16 hours ex vivo, purified by magnetic beads to remove all non-CD4^+ T cells, and replated in unsupplemented culture medium in the absence or presence of TLR ligands. Survival was then assessed 72 hours following activation (FIG. 3A). Poly(I:C) or CpG DNA induced increases of activated CD4^+ T cell survival from 38% to 71 and 73%, respectively.

For assay [3], the system named is Foxp3+GFP+ and Foxp3-GFP- T cells. As to the kind of experiment: Foxp3 expression (GFP reporter) and IL-6 production in Foxp3+ and Foxp3- T cells under stimulation. The following applies: stimulation with anti-CD3 and anti-CD28 antibodies and TGF-b, with additions (FIG. 22). The procedure:
In order to study the effect of stimulation conditions on Foxp3 expression, T cells were from mice having a reporter construct introduced into the FOXP3 locus (Betteli et al., 2006, Nature 441:235-238) by sorting cells based on the GFP-reporter construct. The reporter construct expresses both Fox3p and the fluorescent protein GFP. T cells that are Foxp3^− (i.e. GFP^−) and T cells that are Foxp3^+ (i.e. GFP^+) were isolated (FIG. 21A). Foxp3 expression was then assessed under different stimulation conditions, […]

For `C[S+]([O-])c1ccc(-c2nc(-c3ccncc3)c(-c3ccc(F)cc3)[nH]2)cc1` (stereo not shown) [SB203580], the “effect on poly(I:C)- or CpG DNA-enhanced activated CD4+ T cell survival” value in assay [1] is on record as “neither U0126 or SB203580 treatment decreased”.

For `N#CC(=C(/N)Sc1ccccc1N)/C(C#N)=C(\N)Sc1ccccc1N` [U0126], in assay [1] (concentration of 10 μM), the “overall survival rates of TLR-treated activated CD4+ T cells” value is recorded as “small increase”. The “effect on poly(I:C)- or CpG DNA-enhanced activated CD4+ T cell survival” value in assay [1] is “neither U0126 or SB203580 treatment decreased”. In the case of IFN-α, the “activated CD4+ T cell survival” value in assay [2] (72 hours following activation, DO11.10 CD4+ T cells activated with pOVA-pulsed APCs, purified, untreated 38% (FIG. 3A)) was 67%.

“IL-6: cytokine added to the stimulation conditions”: the “Foxp3 expression in Foxp3-GFP- cells (non-regulatory T cells)” value in assay [3] is given as “blocked the induction of Foxp3”. For the molecule TGF-b, the “Foxp3 expression in Foxp3-GFP- cells (non-regulatory T cells)” value in assay [3] is reported as “promoted Foxp3 expression”. Turning to poly(C), the “effect on activated CD4+ T cell survival (dose response)” value in assay [2] (FIG. 3B, purified activated CD4+ T cells) is reported as “no significant effect”.
